In data set [1] the test system is fibroblasts of the dermal tissue layer of three-dimensional cultured skin. Description: Cell proportion per cell cycle by flow cytometry (FCM), PI staining (Test Example 1). Format: cell-based, human. The method, then: • (5) Of the obtained three-dimensional cultured skin, a dermal tissue layer composed of fibroblasts was separated and DNA-stained with propidium iodide (PI). Next, the proportion of fibroblasts for each cell cycle was analyzed by FCM using Cycle TEST PLUS DNA Reagent Kit (manufactured by BD).
A general note: Flow cytometry measures light scatter and fluorescence of single cells or particles in a stream.

Data set [2] concerns keratinocytes on layered dermal cell structure containing fibroblasts. Put plainly: Large scale three-dimensional cultured tissue, confluent keratinocyte sheet, gas-liquid interface culture (Test Example 2). Format: cell-based, human. The settings on record: 100 mg/mL trehalose in dermal cell structure; confluent keratinocyte sheet of about 1 cm; 75 mm insert; 5 days. As for the experimental part:
• (1) A layered dermal cell structure containing trehalose at a final concentration of 0 or 100 mg/mL was prepared according to the method (1) of Test Example above except that 10 mL of the gel solution I was added to a cell culture insert with a diameter of 75 mm, and 32 mL of the gel solution containing fibroblasts at the same cell density as in (1) was layered. • (2) A ring with a diameter of 1 cm was placed on the obtained collagen gel, and keratinocytes were seeded inside the ring and cultured in MCDB Type-II-EGM (1:1) medium for 2 days. As a result, a sheet of keratinocytes (epithelial cell layer) with a diameter of about 1 cm is formed on the collagen gel. • (3) When the keratinocytes became confluent, the ring was removed and the medium was replaced with CM medium, and gas-liquid interface culture was performed for 5 days in the same manner as in the method (3) of Test Example 1.

Data set [3] relates to NHDF (normal human skin fibroblasts). Description: Monolayer culture of fibroblasts, optical microscope observation (Test Example 3-1). The settings on record: 24 hours monolayer. Format: cell-based.
The test system of data set [4] is β-actin. Put plainly: Western blotting of β-actin in fibroblasts (Test Example 3-1). Particulars: 0, 10, 100 mg/mL trehalose in medium, 24 hours. Format: cell-based, human. As for the experimental part:
The cells were further DNA-stained with PI and subjected to FCM, and the proportion of each cell cycle was examined.
(3) Furthermore, proteins were extracted from the fibroblasts obtained in (1) using RIPA buffer (1% protein inhibitor (manufactured by SIGMA)+Phosphatase Inhibitor cocktail (manufactured by SIGMA)). Then, 10 μg of protein per sample was separated by SDS-PAGE by a conventional method, transferred to a PVDF membrane, and then subjected to Western blotting. Phosphorylated ERK1/2 and phosphorylated AKT were detected by ECL Prime Western Blotting Detection Reagent (manufactured by GE Healthcare), using Phospho-p44/p42 MAPK (Erk1/2) (Thr202/Tyr204) (D13.14.4E) XP Rabbit mAb (#4300, Cell Signaling) and Phospho-Akt (Ser473) antibody (#9271, manufactured by Cell Signaling Technology) as a primary antibody, and an anti-rabbit IgG antibody and an anti-mouse IgG antibody manufactured by PROMEGA were used as secondary antibodies, and visualized by Image Quant LAS4010 (manufactured by GE Healthcare).

Data set [5] has as its system EREG, ARG2, CCL2, IL1RN, PGF, SPP1, VEGFA, DPT and FGF2 mRNA. Description: qPCR of genes in fibroblasts in collagen gel, 3 days (Test Example 3-4). Format: cell-based, human. The settings on record: 100 mg/mL trehalose (Treha 100). The method, then:
A collagen gel containing NHDF was prepared according to the method (1) of Test Example 1. The obtained collagen gel was cultured in DMEM medium containing 0 or 100 mg/mL trehalose, 1% FCS and 1% ABAM for 3 days, and RNA was recovered from the cells. The obtained sample was subjected to the same operation as in Test Example 3-2, and qPCR for genes EREG, ARG2, CCL2, IL1RN, PGF, SPP1, VEGFA, DPT and FGF2 was performed. GAPDH was used as a reference gene.
A general note: Real-time PCR tracks product formation cycle by cycle.

The subject of data set [6] is human normal skin keratinocytes on collagen gel containing pretreated NHDF. Description: Three-dimensional cultured skin using fibroblasts pretreated with trehalose (Test Example 4). Format: cell-based. The method, then:
• (1) NHDF was seeded on a cell culture dish containing 10% FCS and 1% ABAM-containing DMEM medium at a cell density of 4.0×10^4 cells/cm^2. After 24 hours from seeding, at a cell density of 4.5×10^4 cells/cm^2, the medium was replaced with 1% FCS and 1% ABAM-containing DMEM medium containing 0, 30, or 100 mg/mL trehalose, and the cells were incubated at 37° C. for 24 hours. Then, a collagen gel containing 5.0×10^5 cells/ml of the obtained NHDF was prepared under the same conditions as in Test Example 1 except that trehalose was not added. • (2) According to the method of Test Example 1, the obtained NHDF-containing collagen gel was pre-cultured for 5 days, and then human normal skin keratinocytes were seeded and cultured for 2 days at 37° C. • (3) Further, according to the method of Test Example 1, gas-liquid interface culture was performed at 37° C. for 7 days using CM medium.

Data set [7] concerns wound with a diameter of 6 mm on the back of C57BL/6 mice. Description: In vivo test of effect of trehalose on skin wound (Test Example 6). Set-up: species or system mouse. The method, then: In order to verify an effect of trehalose on skin wounds, in vivo test using mice was performed. The method is shown below. • (1) 15 week old C57BL/6 mice were anesthetized, the back was extensively depilated, then the skin of the back was pinched and overlaid, and a wound with a diameter of 6 mm was prepared with a biopsy trepan. • (2) Wound mice were divided into 2 groups of 6 mice each, and 100 mg of an agent composed only of Vanicream (Pharmaceutical Specialties, INC) as a base was applied to a control group, and 100 mg of an agent composed of 10% by mass trehalose and Vanicream as a base was applied to a trehalose treatment group once a day. • (3) Images of each wound up to 9 days after wound formation and the area of each wound were recorded, respectively.

The mark [8] stands for this setting: Trehalose concentration 100 mg/mL, n = 2, averages.

As for `OC[C@H]1O[C@H](O[C@H]2O[C@H](CO)[C@@H](O)[C@H](O)[C@H]2O)[C@H](O)[C@@H](O)[C@@H]1O` [trehalose, α, α-trehalose], in data set [1] (100 mg/mL vs 0 mg/mL trehalose), the “proportions of fibroblasts in S phase and G2 phase” value was “significantly increased”. Besides, in data set [1] (setting [8]), the “Proportion of cells in cell cycle, G1” value is on record as 62.5%; the “Proportion of cells in cell cycle, G2” value turned out to be 14.0%; the “Proportion of cells in cell cycle, S” value is 15.3%. The “expansion of the epithelial tissue layer during gas-liquid interface culture” value in data set [2] is listed as “expanded to the outer edge of the culture insert”. For the same compound, in data set [3] (10 mg/mL trehalose), the “increase in the number of cells” value is recorded as “slightly suppressed”. Besides, in data set [3] (100 mg/mL trehalose), the “appearance of damage to cells” value was “no appearance of any damage”, the cell morphology result is given as “the number of spindle-shaped cells was large” and the “increase in the number of cells” value is on record as “further suppressed”. For the same compound, the “synthesis amount of β-actin” value in data set [4] is given as “increased depending on the amount of trehalose”. In data set [5], the “mRNA expression levels of genes EREG, ARG2, CCL2, ILIRN, PGF, SPP1, VEGFA, DPT and FGF2 compared to vehicle” value is recorded as “significantly increased”. Further, the “contraction of the collagen gel” value in data set [6] (fibroblast cells pre-cultured with trehalose) is listed as “not observed”. Besides, the “enlargement of three-dimensional cultured skin in diameter compared to pre-culturing with medium containing no trehalose” value in data set [6] (fibroblasts pre-cultured with 30 mg/mL trehalose for 24 hours before collagen gel preparation) was “about 1.4 times”. Moreover, the “area of three-dimensional cultured skin” value in data set [6] (fibroblasts pre-cultured with 100 mg/mL trehalose for 24 hours before collagen gel preparation) was “enlarged to cover the entire cell culture insert”. Besides, the “recovery of wounds compared to control group” value in data set [7] (100 mg of agent of 10% by mass trehalose and Vanicream, applied once a day) is given as “significantly faster”. Further, the “day on which wound epithelialized” value in data set [7] (10% by mass trehalose in Vanicream, once a day) was 4 days. Besides, the wound area entry in data set [7] (10% by mass trehalose in Vanicream, once a day, after 1 day) is on record as “remarkably reduced”. Moreover, the “difference between groups in wound area (two-way ANOVA, p<0.001)” value in data set [7] (each point of days 2 to 6, n=6 in each group) is “significant differences”.

(Values after patent publication US20250270513A1, “METHOD FOR PRODUCING CULTURED TISSUE, AND PREPARATION FOR EXTERNAL APPLICATION” (National University Corporation Ehime University, priority 2019, published 2025).)
